Assay results: patent US6376497B1, “Antifungal azole derivatives having a fluorinated vinyl group and process for preparing same” (Korea Research Institute of Chemical Technology, priority 1999, dated 2002)
Values after ≈ are worked out from the molar mass of the structure shown. Read-outs that look alike come from different tables or passages of the source.

Assays:
[1] = tested on: Candida albicans IFO. 1385; test: In vitro antifungal activity, microbroth dilution MIC; type: cell-based; conditions: C. albicans IFO. 1385, RPMI-1640, 35° C., 4 to 48 hours
In short: (§1)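 Broth microdilution adapted from NCCLS M27, in RPMI-1640 with 0.165 M MOPS, pH 7.0. Yeast or mould inoculum at 2×10^3 CFU/ml was mixed 1:1 with DMSO-derived compound solutions (200 to 0.10 μg/ml before mixing) and incubated at 35 °C for 4 to 48 h. MIC was the concentration showing no growth.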

Candida krusei K. 11655 = test: as above; type: cell-based; conditions: C. krusei K. 11655, RPMI-1640, 35° C., 4 to 48 hours
In short: as §1

[2] = tested on: Trichophyton mentagrophytes B. 32663; test: as above; type: cell-based; conditions: T. mentagrophytes B. 32663, RPMI-1640, 35° C., 4 to 48 hours
In short: as §1

[3] = tested on: Aspergillus furnigatus B. 19119; test: as above; type: cell-based; conditions: A furnigatus B. 19119, RPMI-1640, 35° C., 4 to 48 hours
In short: as §1

[4] = tested on: Candida albicans A. 10231; test: as above; type: cell-based; conditions: C. albicans A. 10231, RPMI-1640, 35° C., 4 to 48 hours
In short: as §1

[5] = tested on: Aspergillus niger A. 16404; test: as above; type: cell-based; conditions: A. niger A. 16404, RPMI-1640, 35° C., 4 to 48 hours
In short: as §1

[6] = tested on: Trichophyton mentagrophytes A. 9129; test: as above; type: cell-based; conditions: T. mentagrophytes A. 9129, RPMI-1640, 35° C., 4 to 48 hours
In short: as §1

[7] = tested on: Candida tropicalis A. 13803; test: as above; type: cell-based; conditions: C. tropicalis A. 13803, RPMI-1640, 35° C., 4 to 48 hours
In short: as §1

[8] = tested on: Candida pseudotropicalis K. 11658; test: as above; type: cell-based; conditions: C. pseudotropicalis K. 11658, RPMI-1640, 35° C., 4 to 48 hours
In short: as §1

[9] = tested on: Torulopsis glabrata B. 16205; test: as above; type: cell-based; conditions: T. glabrata B. 16205, RPMI-1640, 35° C., 4 to 48 hours
In short: as §1

[10] = tested on: Cryptococcus neoformans IFM. 40092; test: as above; type: cell-based; conditions: Cry. neoformans IFM. 40092, RPMI-1640, 35° C., 4 to 48 hours
In short: as §1

[11] = tested on: Cryptococcus neoformans B. 42419; test: as above; type: cell-based; conditions: Cry. neoformans B. 42419, RPMI-1640, 35° C., 4 to 48 hours
In short: as §1

[12] = tested on: Candida parapsitosis A. 7330; test: as above; type: cell-based; conditions: C. parapsitosis A. 7330, RPMI-1640, 35° C., 4 to 48 hours
In short: as §1

Candida albicans C1-2 = test: as above; type: cell-based; conditions: C. albicans C1-2, RPMI-1640, 35° C., 4 to 48 hours
In short: as §1

[13] = tested on: Cryptococcus neoformans A. 34144; test: as above; type: cell-based; conditions: Cry. neoformans A. 34144, RPMI-1640, 35° C., 4 to 48 hours
In short: as §1

ICR mice = conditions: for LD50: single oral administration in corn oil containing 30% DMSO, observed for 7 days
Description: 30 four-week-old, specific pathogen-free ICR mice, 15 female mice each weighing about 15.8 to 22.3 g and 15 male mice each weighing about 18.7 to 25.6 g, were provided by the Animal Center of Korean Research Institute of Chemical and Technology.
When the mice became five-week-old, 15 female mice each weighing about 17.0 to 22.3 g and 15 male mice each weighing about 22.0 to 27.7 g were bred for 6 days before the experiment under an environment of […], 50±10% relative humidity, 12L/12D photoperiod, 10-20 ventilation and 150-300 Lux illumination, with free access to food(Cheil Fodder Co.) which had been sterilized by using 2.0 Mrad radiation and water sterilized by U.V. sterilizer.
The compound of Example 26 of the present invention was dissolved in corn oil containing 30% DMSO and the solution was orally administered in doses of 10, 50, 100, 500, 1,000 and 2,000 mg of the compound/kg of the body weight(10 ml of the sample volume/kg of the body weight). […] The weight changes of the mice were recorded every day to examine the effect of the test compound. Further, on the 7th day, the mice were sacrificed and the internal organs were visually examined.

mouse [14] = conditions: intravenous; cited from earlier work
mouse [15] = conditions: oral; cited from earlier work

Row | Molecule | Minimal inhibitory concentration (MIC) [1] [µg/mL] | Minimal inhibitory concentration (MIC) (Candida krusei K. 11655) [µg/mL] | Minimal inhibitory concentration (MIC) [2] [µg/mL] | Minimal inhibitory concentration (MIC) [3] [µg/mL] | Minimal inhibitory concentration (MIC) [4] [µg/mL] | Minimal inhibitory concentration (MIC) [5] [µg/mL] | Minimal inhibitory concentration (MIC) [6] [µg/mL] | Minimal inhibitory concentration (MIC) [7] [µg/mL] | Minimal inhibitory concentration (MIC) [8] [µg/mL] | Minimal inhibitory concentration (MIC) [9] [µg/mL] | Minimal inhibitory concentration (MIC) [10] [µg/mL] | Minimal inhibitory concentration (MIC) [11] [µg/mL] | Minimal inhibitory concentration (MIC) [12] [µg/mL] | Minimal inhibitory concentration (MIC) (Candida albicans C1-2) [µg/mL] | Minimal inhibitory concentration (MIC) [13] [µg/mL] | other results
1 | FC(OCC1COC(Cn2ccnc2)(c2ccc(Cl)cc2Cl)O1)=C(c1ccc2c(c1)OCO2)C(F)(F)F (centres unmarked) [Ex. 28] | 1.56 (≈ 2.78 µM) | >100 | 6.25 (≈ 11.1 µM) | 100 (≈ 178 µM) | 25.0 (≈ 44.5 µM) | 100 (≈ 178 µM) | 25.0 (≈ 44.5 µM) | 100 (≈ 178 µM) | 100 (≈ 178 µM) | 25.0 (≈ 44.5 µM) | 0.78 (≈ 1.39 µM) | 1.56 (≈ 2.78 µM) | 100 (≈ 178 µM) | 25.0 (≈ 44.5 µM) | 1.56 (≈ 2.78 µM) | 
2 | FC(OCC1COC(Cn2ccnc2)(c2ccc(Cl)cc2Cl)O1)=C(c1ccc(Oc2ccccc2)cc1)C(F)(F)F (centres unmarked) [Ex. 29] | 1.56 (≈ 2.56 µM) | >100 | 3.13 (≈ 5.14 µM) | 6.25 (≈ 10.3 µM) | >100 | 100 (≈ 164 µM) | 6.25 (≈ 10.3 µM) | >100 | >100 | 12.5 (≈ 20.5 µM) | 0.20 (≈ 0.328 µM) | 1.56 (≈ 2.56 µM) | >100 | >100 | 1.56 (≈ 2.56 µM) | 
3 | FC(OCC1COC(Cn2ccnc2)(c2ccc(Cl)cc2Cl)O1)=C(c1cccc(Cl)c1)C(F)(F)F (centres unmarked) [Ex. 30] | 1.56 (≈ 2.83 µM) | >100 | 1.56 (≈ 2.83 µM) | 12.5 (≈ 22.7 µM) | 25.0 (≈ 45.3 µM) | 25.0 (≈ 45.3 µM) | 6.25 (≈ 11.3 µM) | >100 | >100 | 12.5 (≈ 22.7 µM) | 0.20 (≈ 0.362 µM) | 0.78 (≈ 1.41 µM) | >100 | 25.0 (≈ 45.3 µM) | 0.78 (≈ 1.41 µM) | 
4 | FC(OCC1COC(Cn2ccnc2)(c2ccc(Cl)cc2Cl)O1)=C(c1ccc(Cl)cc1)C(F)(F)F (centres unmarked) [Ex. 31] | 0.78 (≈ 1.41 µM) | 25.0 (≈ 45.3 µM) | 1.56 (≈ 2.83 µM) | 6.25 (≈ 11.3 µM) | 12.5 (≈ 22.7 µM) | 6.25 (≈ 11.3 µM) | 3.13 (≈ 5.67 µM) | 12.5 (≈ 22.7 µM) | 12.5 (≈ 22.7 µM) | 6.25 (≈ 11.3 µM) | 0.78 (≈ 1.41 µM) | 1.56 (≈ 2.83 µM) | 25.0 (≈ 45.3 µM) | 12.5 (≈ 22.7 µM) | 1.56 (≈ 2.83 µM) | 
5 | COc1cccc(C(=C(F)OCC2COC(Cn3ccnc3)(c3ccc(Cl)cc3Cl)O2)C(F)(F)F)c1 (centres unmarked) [Example 26] | 0.39 (≈ 0.713 µM) | 25.0 (≈ 45.7 µM) | 0.78 (≈ 1.43 µM) | 3.13 (≈ 5.72 µM) | 6.25 (≈ 11.4 µM) | 6.25 (≈ 11.4 µM) | 1.56 (≈ 2.85 µM) | 12.5 (≈ 22.8 µM) |  | 6.25 (≈ 11.4 µM) | 0.39 (≈ 0.713 µM) | 1.56 (≈ 2.85 µM) | 12.5 (≈ 22.8 µM) | 6.25 (≈ 11.4 µM) | 1.56 (≈ 2.85 µM) | LD50 (ICR mice; female): approximately 2,000 mg/kg; LD50 (ICR mice; male): higher than 2,000 mg/kg; survival at day 7 (ICR mice; single oral dose of 1,000 mg/kg or below): All the mice were alive at day 7; weight loss (ICR mice; single oral doses 10 to 2,000 mg/kg, 7 day test period): no weight loss was observed
6 | C[C@@H]1[C@H](O)[C@@H](C)/C=C/C=C/C=C/C=C/C=C/C=C/C=C/[C@H](O[C@@H]2O[C@H](C)[C@@H](O)[C@H](N)[C@@H]2O)C[C@@H]2O[C@](O)(C[C@@H](O)C[C@@H](O)[C@H](O)CC[C@@H](O)C[C@@H](O)CC(=O)O[C@H]1C)C[C@H](O)[C@H]2C(=O)O [amphotericin B] |  |  |  |  |  |  |  |  |  |  |  |  |  |  |  | LD50 (mouse [14]): 4 mg/kg
7 | CC(=O)N1CCN(c2ccc(OCC3COC(Cn4ccnc4)(c4ccc(Cl)cc4Cl)O3)cc2)CC1 (centres unmarked) [ketoconazole] |  |  |  |  |  |  |  |  |  |  |  |  |  |  |  | LD50 (mouse [15]): 702 mg/kg
8 | (E&Z) 1-{4-[cis-2-(2,4-dichlorophenyl)-2-(1H-1-imidazolylmethyl)-1,3-dioxolan-4-ylmethoxy]-phenoxy}-1,3,3,3-tetrafluoro-2-phenyl-1-propene [Example 19] | 0.78 | 50.0 | 0.78 | 1.56 | 6.25 | 3.13 | 1.56 | 25.0 | 25.0 | 3.13 | 0.20 | 0.78 | >100 | 6.25 | 1.56 | 
